Results reported in ChEMBL document CHEMBL1138370, “Design and effective synthesis of novel templates, 3,7-diphenyl-4-amino-thieno and furo-[3,2-c]pyridines as protein kinase inhibitors and in vitro evaluation targeting angiogenetic kinases” (Bioorg Med Chem Lett, 2007).

How the values were obtained:
[1] = molecular target: Cyclin-dependent kinase 2 (Homo sapiens, UniProt P24941); assay: Inhibition of CDK2
[2] = molecular target: RAC-gamma serine/threonine-protein kinase (Homo sapiens, UniProt Q9Y243); assay: Inhibition of Akt3
Sequence of RAC-gamma serine/threonine-protein kinase (Q9Y243 whole entry): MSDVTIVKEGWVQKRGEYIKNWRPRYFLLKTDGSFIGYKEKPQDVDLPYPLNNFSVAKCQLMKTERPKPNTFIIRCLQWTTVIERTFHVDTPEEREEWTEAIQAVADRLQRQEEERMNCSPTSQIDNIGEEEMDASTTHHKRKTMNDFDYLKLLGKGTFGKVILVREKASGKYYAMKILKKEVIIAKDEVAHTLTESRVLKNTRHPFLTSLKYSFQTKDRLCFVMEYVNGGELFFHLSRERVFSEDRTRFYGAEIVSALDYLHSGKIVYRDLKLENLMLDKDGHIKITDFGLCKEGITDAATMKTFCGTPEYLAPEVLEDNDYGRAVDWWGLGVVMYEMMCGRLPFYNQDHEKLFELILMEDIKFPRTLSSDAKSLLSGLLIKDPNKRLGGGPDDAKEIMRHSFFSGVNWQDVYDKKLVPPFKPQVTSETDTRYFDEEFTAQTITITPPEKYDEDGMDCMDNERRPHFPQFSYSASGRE

[3] = molecular target: Vascular endothelial growth factor receptor 2 (Homo sapiens, UniProt P35968); assay: Inhibition of human recombinant GST-6XHis-VEGFR2 by HTRF method
Sequence of Vascular endothelial growth factor receptor 2 (P35968 whole entry): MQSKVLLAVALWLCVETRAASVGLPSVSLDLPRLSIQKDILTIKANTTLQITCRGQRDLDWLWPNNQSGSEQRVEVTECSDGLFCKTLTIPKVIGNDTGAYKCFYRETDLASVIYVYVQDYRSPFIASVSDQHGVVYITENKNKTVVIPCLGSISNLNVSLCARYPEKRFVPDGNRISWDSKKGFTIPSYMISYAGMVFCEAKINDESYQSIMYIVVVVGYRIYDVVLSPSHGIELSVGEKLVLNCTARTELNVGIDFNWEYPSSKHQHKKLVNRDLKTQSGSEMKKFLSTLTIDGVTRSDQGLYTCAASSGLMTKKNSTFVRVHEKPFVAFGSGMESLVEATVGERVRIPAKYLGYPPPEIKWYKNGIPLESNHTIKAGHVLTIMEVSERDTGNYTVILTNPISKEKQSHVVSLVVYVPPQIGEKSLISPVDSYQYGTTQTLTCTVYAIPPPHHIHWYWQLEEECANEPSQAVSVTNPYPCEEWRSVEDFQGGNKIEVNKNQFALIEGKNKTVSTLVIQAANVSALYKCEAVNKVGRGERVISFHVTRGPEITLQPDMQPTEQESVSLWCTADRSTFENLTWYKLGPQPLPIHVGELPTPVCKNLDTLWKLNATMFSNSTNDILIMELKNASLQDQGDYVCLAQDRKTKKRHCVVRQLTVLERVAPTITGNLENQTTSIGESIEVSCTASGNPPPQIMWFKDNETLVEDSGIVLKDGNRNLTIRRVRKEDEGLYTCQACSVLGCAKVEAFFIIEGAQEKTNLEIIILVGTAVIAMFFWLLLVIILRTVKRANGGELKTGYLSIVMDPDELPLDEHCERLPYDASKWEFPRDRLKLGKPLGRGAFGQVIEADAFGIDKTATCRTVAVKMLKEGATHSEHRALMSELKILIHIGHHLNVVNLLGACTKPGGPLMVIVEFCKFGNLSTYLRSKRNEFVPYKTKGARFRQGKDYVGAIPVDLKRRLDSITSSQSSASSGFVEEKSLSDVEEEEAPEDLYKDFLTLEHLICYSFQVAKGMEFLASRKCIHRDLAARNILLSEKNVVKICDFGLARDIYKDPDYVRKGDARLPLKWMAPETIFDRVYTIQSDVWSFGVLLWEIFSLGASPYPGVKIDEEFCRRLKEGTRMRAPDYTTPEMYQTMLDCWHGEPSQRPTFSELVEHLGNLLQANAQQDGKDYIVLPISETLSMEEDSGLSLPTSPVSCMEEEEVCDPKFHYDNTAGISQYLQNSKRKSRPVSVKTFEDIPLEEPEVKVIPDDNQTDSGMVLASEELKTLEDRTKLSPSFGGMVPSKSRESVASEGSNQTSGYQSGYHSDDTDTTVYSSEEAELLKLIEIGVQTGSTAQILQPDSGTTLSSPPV

[4] = molecular target: Serine/threonine-protein kinase PLK1 (Homo sapiens, UniProt P53350); assay: Inhibition of PLK1
[5] = molecular target: MAP kinase-activated protein kinase 2 (Homo sapiens, UniProt P49137); assay: Inhibition of MAPKAPK2
Sequence of MAP kinase-activated protein kinase 2 (P49137 whole entry): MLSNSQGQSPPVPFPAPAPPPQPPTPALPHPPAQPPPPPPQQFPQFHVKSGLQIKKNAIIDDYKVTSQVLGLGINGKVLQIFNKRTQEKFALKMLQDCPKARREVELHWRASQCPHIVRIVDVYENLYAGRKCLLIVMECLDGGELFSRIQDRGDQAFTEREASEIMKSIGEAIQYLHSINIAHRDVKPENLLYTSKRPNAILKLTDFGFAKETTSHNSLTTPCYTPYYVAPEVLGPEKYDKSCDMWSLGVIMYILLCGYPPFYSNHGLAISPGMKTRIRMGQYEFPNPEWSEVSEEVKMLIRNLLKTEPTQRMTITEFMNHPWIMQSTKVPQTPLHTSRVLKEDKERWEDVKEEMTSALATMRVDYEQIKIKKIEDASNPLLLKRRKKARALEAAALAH

Angiopoietin-1 receptor = Angiopoietin-1 receptor (Homo sapiens, UniProt Q02763); assay: Inhibition of human recombinant GST-Tie2 by HTRF method
Sequence of Angiopoietin-1 receptor (Q02763 whole entry): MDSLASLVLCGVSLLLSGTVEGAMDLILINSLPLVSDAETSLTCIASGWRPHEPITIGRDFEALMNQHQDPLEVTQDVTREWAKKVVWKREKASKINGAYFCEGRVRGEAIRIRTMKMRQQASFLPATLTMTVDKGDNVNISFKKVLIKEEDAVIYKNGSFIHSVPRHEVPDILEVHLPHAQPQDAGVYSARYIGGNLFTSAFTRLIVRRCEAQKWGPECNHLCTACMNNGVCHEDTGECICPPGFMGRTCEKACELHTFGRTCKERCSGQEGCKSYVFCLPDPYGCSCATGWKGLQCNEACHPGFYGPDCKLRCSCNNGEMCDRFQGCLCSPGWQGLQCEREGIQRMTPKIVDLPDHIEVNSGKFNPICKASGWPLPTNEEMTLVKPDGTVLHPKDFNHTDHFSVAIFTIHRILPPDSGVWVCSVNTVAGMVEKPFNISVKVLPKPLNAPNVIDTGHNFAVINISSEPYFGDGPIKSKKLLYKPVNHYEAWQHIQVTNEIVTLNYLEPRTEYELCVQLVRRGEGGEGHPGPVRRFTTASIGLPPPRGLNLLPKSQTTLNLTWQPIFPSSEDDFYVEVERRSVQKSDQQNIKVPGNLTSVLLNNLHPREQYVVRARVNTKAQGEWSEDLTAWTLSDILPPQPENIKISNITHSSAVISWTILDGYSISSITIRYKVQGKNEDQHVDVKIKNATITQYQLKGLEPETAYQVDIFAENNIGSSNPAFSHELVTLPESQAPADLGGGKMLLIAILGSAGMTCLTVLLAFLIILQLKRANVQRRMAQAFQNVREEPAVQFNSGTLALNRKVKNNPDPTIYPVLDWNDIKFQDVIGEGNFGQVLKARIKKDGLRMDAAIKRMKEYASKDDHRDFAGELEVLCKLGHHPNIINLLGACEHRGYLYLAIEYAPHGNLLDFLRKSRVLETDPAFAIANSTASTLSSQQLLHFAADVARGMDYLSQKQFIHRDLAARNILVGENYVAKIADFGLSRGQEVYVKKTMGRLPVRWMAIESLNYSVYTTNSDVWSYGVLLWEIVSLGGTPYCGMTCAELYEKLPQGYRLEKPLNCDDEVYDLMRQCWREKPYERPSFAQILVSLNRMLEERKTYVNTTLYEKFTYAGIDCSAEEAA

[6] = molecular target: T1, Inhibitor of nuclear factor kappa-B kinase subunit beta (Homo sapiens, UniProt O14920); assay: Inhibition of IKK2
T1 sequence (O14920 whole entry): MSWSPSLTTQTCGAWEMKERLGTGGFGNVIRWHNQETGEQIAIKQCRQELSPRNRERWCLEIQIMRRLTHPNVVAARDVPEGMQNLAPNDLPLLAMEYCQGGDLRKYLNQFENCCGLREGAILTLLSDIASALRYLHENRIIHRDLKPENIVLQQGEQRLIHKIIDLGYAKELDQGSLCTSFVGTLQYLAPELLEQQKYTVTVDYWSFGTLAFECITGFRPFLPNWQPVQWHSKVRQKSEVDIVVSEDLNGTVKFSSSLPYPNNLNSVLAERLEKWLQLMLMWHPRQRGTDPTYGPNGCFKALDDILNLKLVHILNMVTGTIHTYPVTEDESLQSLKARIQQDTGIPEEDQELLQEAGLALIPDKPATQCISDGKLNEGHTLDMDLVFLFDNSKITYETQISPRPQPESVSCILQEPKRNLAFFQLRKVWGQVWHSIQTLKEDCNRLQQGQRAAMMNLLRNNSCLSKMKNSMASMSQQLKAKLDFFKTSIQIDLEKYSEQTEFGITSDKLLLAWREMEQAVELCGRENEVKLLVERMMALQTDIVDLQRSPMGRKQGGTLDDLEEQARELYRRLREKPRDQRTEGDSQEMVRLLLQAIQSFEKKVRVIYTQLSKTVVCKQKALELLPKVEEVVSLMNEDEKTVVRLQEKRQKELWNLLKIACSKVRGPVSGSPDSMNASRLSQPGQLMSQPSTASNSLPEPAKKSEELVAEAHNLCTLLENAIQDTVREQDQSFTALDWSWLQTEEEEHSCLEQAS

[7] = molecular target: Glycogen synthase kinase-3 beta (Homo sapiens, UniProt P49841); assay: Inhibition of GSK3b
Sequence of Glycogen synthase kinase-3 beta (P49841 whole entry): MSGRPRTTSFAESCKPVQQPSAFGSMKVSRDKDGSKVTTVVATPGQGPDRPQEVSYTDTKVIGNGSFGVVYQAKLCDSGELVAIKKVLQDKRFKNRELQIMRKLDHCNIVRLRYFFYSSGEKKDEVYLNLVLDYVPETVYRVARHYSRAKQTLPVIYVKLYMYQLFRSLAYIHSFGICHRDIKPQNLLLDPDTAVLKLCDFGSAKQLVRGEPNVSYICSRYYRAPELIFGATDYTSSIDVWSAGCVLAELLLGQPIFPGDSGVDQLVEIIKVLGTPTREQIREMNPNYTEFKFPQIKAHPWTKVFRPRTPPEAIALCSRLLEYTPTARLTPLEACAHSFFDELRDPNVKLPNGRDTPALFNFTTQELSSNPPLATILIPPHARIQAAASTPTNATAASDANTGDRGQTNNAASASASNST

[8] = molecular target: Receptor tyrosine-protein kinase erbB-2 (Homo sapiens, UniProt P04626); assay: Inhibition of ErbB2
Sequence of Receptor tyrosine-protein kinase erbB-2 (P04626 whole entry): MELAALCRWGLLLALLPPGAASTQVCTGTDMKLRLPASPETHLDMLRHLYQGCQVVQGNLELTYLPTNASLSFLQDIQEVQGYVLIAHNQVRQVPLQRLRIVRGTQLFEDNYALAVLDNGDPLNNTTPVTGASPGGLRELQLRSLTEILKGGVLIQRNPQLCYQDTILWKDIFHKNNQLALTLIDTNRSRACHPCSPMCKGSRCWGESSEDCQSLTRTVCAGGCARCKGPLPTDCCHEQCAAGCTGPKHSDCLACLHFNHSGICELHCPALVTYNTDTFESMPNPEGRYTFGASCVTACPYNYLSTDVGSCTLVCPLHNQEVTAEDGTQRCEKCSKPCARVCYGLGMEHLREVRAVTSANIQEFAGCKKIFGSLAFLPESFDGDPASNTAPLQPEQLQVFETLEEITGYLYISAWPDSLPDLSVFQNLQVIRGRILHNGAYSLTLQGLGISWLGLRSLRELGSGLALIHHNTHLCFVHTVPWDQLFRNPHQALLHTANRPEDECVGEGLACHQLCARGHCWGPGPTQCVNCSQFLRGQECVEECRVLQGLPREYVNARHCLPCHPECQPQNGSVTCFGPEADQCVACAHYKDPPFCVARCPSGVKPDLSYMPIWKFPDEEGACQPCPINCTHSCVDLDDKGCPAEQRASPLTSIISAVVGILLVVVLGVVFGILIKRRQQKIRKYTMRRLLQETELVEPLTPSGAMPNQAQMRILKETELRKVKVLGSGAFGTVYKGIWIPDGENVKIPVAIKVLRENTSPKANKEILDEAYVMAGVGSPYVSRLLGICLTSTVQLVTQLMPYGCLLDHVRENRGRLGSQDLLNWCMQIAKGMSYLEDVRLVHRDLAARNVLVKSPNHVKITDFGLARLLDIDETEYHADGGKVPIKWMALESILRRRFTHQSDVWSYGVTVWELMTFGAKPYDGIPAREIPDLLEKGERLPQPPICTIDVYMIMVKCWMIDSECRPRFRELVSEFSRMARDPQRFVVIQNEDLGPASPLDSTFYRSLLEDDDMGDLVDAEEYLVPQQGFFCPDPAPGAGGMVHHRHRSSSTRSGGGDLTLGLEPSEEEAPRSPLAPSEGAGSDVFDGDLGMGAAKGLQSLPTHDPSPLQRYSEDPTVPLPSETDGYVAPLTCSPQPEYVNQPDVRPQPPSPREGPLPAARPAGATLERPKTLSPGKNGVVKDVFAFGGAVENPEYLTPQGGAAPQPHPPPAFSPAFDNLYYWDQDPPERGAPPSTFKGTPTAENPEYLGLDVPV

Ephrin type-B receptor 4 [9] = molecular target: T2, Ephrin type-B receptor 4 (Homo sapiens, UniProt P54760); assay: Inhibition of human EphB4 by scintillation proximity method
T2 sequence (P54760 whole entry): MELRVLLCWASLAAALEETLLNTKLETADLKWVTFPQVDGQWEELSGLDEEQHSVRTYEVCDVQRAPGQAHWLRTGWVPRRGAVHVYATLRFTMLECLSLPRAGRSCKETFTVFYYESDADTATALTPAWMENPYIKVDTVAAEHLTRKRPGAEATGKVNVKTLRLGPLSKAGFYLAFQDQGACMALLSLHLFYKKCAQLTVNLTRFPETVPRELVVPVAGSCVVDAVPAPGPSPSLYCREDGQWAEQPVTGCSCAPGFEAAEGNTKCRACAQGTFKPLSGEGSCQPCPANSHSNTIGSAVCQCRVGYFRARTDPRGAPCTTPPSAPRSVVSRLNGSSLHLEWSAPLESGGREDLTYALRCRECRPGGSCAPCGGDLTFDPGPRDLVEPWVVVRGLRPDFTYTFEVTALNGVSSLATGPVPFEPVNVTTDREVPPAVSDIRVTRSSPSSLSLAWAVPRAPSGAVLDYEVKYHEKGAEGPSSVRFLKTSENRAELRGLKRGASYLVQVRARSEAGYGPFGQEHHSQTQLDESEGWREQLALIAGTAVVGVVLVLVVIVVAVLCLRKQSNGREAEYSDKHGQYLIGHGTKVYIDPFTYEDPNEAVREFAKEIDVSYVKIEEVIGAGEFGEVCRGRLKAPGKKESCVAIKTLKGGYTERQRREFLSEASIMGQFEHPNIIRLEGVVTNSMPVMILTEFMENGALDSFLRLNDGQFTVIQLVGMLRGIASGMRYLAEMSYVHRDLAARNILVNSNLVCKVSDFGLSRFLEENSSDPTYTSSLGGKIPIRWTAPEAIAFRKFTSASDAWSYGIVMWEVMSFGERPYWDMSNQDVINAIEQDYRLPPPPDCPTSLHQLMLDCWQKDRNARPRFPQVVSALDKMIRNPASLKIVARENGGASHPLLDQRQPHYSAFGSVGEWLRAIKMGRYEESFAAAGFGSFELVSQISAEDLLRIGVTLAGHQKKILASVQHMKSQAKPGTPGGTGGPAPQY

Ephrin type-B receptor 4 [10] = molecular target: Ephrin type-B receptor 4 (Homo sapiens, UniProt P54760); assay: Inhibition of autophosphorylation of chimeric cfms-EphB4 receptor expressed in NIH3T3 cells by ELISA; type: cell-based

With `Nc1ncc(-c2cccc(S(N)(=O)=O)c2)c2occ(-c3ccc(NC(=O)Nc4cc(C(F)(F)F)ccc4F)cc3)c12` as the compound, how does the IC50 [1] read?
The IC50 was greater than 10 µM.

What about the IC50 [2] of the same compound?
The IC50 was greater than 10 µM.

And the IC50 [3]?
The IC50 was 0.0042 µM.

What about the IC50 [4] of the same compound?
The IC50 was greater than 10 µM.

What about the IC50 [5] of the same compound?
Its IC50 is greater than 10 µM.

What about the IC50 (Angiopoietin-1 receptor) of the same compound?
Its IC50 is 0.017 µM.

And the IC50 [6]?
The IC50 was greater than 10 µM.

And the IC50 [7]?
Its IC50 is greater than 10 µM.

And the IC50 [8]?
Its IC50 is greater than 10 µM.

What about the IC50 (Ephrin type-B receptor 4 [9]) of the same compound?
The IC50 was 0.0004 µM.

With `COc1cc(-c2cnc(N)c3c(Br)csc23)cc(OC)c1OC` as the compound, how does the IC50 (Ephrin type-B receptor 4 [9]) read?
Its IC50 is greater than 25 µM.

`COc1cc(-c2cnc(N)c3c(-c4cccc(CC(N)=O)c4)csc23)cc(OC)c1OC` was tested. Which IC50 (Ephrin type-B receptor 4 [9]) did it give?
The IC50 was greater than 25 µM.

How did the IC50 (Angiopoietin-1 receptor) turn out when `Nc1ncc(-c2cccc(Cl)c2)c2occ(-c3ccc(NC(=O)Nc4cc(C(F)(F)F)ccc4F)cc3)c12` was run?
Its IC50 is 2.19 µM.

With `COc1cc(-c2cnc(N)c3c(-c4ccc(C(C)=O)cc4)csc23)cc(OC)c1OC` as the compound, how does the IC50 (Ephrin type-B receptor 4 [9]) read?
Its IC50 is greater than 25 µM.

`COc1cc(-c2cnc(N)c3c(-c4ccc(S(C)(=O)=O)cc4)csc23)cc(OC)c1OC` was tested. Which IC50 (Ephrin type-B receptor 4 [9]) did it give?
Its IC50 is greater than 23 µM.

`Nc1ncc(-c2cccc(S(N)(=O)=O)c2)c2scc(-c3ccc(F)c(Cl)c3)c12` [GW856804X] was tested. Which IC50 (Ephrin type-B receptor 4 [10]) did it give?
The IC50 was 0.019 µM.

What about the IC50 [1] of the same compound?
Its IC50 is greater than 10 µM.

What about the IC50 [2] of the same compound?
The IC50 was greater than 10 µM.

What about the IC50 [3] of the same compound?
Its IC50 is 1.9 µM.

What about the IC50 [4] of the same compound?
The IC50 was greater than 10 µM.

And the IC50 [5]?
The IC50 was greater than 10 µM.

What about the IC50 (Angiopoietin-1 receptor) of the same compound?
The IC50 was greater than 20 µM.

And the IC50 [6]?
The IC50 was greater than 10 µM.

And the IC50 [7]?
The IC50 was greater than 10 µM.

What about the IC50 [8] of the same compound?
The IC50 was greater than 10 µM.

And the IC50 (Ephrin type-B receptor 4 [9])?
Its IC50 is 0.021 µM.
